Results taken from patent US11123340B2, “Small-molecule UT-A-selective urea transport inhibitors” (The Regents of the University of California, priority 2014, dated 2021).

What was measured:
MDCK cells = assay: Cell toxicity, Alamar blue assay; type: cell-based, canine; conditions: 24 h, up to 25 μM
Experimental: MDCK cells on black 96-well Costar microplates with clear plastic bottoms were cultured for 24 h at 37° C. and incubated with test compounds (0 to 25 μM) for 24 h. Cell viability was assayed using AlamarBlue (Pierce, Rockford, Ill.) in which the reagent was added to each well, incubated for 30 min, and absorbance measured at 590 nm. For short-circuit current measurement, snapwell inserts containing MDCK cells were mounted on Ussing chambers. Test compounds (20 μM) were incubated with MDCK cells at both apical and basolateral sides for 10 min at 37° C. prior to addition of 20 μM forskolin and then 100 μM ATP. The apical and basolateral chambers contained identical solutions: 120 mM NaCl, 5 mM KCl, 1 mM MgCl2, 1 mM CaCl2, 5 mM HEPES, 25 mM NaHCO3 and 10 mM glucose. Solutions were bubbled with 5% CO2/95% O2 and maintained at 37° C. […]
Compound toxicity was evaluated by compound incubation for 24 h with MDCK cell cultures followed by Alamar blue assay. […] To assess potential ion channel off-target effects, short-circuit current was measured in MDCK cells in response to cAMP (forskolin) and calcium (ATP) agonists (FIG. 5C, right), which depends on the actions of multiple anion (CFTR, calcium-activated chloride channels) and cation (K^+, Na^+) channels.

rat UT-B = molecular target: T1, rat UT-B (Rattus norvegicus, UniProt P97689); assay: UT-B inhibition, erythrocyte lysis assay; type: cell-based
T1 construct: endogenous in cells; host or cells: rat erythrocytes (whole rat blood)
T1 sequence (P97689 1-384): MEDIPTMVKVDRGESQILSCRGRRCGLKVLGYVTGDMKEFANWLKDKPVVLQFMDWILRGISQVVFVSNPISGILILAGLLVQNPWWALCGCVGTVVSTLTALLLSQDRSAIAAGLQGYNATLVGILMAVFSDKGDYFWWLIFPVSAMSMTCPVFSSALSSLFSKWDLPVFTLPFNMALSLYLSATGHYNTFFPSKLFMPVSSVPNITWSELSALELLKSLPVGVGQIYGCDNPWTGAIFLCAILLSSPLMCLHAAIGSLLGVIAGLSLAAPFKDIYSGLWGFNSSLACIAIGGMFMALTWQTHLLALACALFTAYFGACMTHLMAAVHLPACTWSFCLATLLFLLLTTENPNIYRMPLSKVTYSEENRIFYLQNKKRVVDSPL
Experimental: As described (see, e.g., Levin et al. (2007) FASEB J. 21, 551-563), whole rat blood was diluted to a hematocrit of ˜1.5% in PBS containing 1.25 M acetamide and 5 mM glucose. Erythrocyte suspensions (100 μL) were added to 96-well round-bottom microplates and test compounds (1 μL) were added. After 15 min incubation, 20 μL of the erythrocyte suspension was added rapidly to each well containing 180 μL of PBS. Following vigorous mixing, erythrocyte lysis was quantified by absorbance at 710 nm. Non-lysed controls (isosmolar buffer) and lysed controls (0.7 mM phloretin) were added in each plate as negative and positive controls, respectively. Percentage erythrocyte lysis was computed as: % lysis=100% (Aneg−Atest)/(Aneg−Apos), where A is absorbance at 710 nm.
Inhibitor selectivity for rat UT-A1 versus UT-B was investigated using an erythrocyte lysis assay of rat UT-B urea transport, which involved measurement of hypotonic lysis (by near-infrared absorbance) of acetamide-loaded erythrocytes following rapid dilution into acetamide-free buffer.

selectivity for UT-A1 versus UT-B (rat UT-B; rat UT-A1 versus rat UT-B)	IC50 (rat UT-B; rat erythrocytes)	Compound	toxicity (MDCK cells)
high selectivity		CC(=O)Nc1ccc(-c2csc(-c3c[nH]c4ccccc34)n2)cc1 [UTA1inh-E02, N-(4-(2-(1H-indol-3-yl)thiazol-4-yl)phenyl)acetamide]	little toxicity
	10 µM	COc1ccc(C)cc1S(=O)(=O)Nc1ccc(Cl)c(N2CCCS2(=O)=O)c1 [UTA1inh-F11, N-[4-Chloro-3-(1,1-dioxido-1,2-thiazolidin-2-yl)phenyl]-2-methoxy-5-methylbenzene-sulfonamide]	little toxicity
